Laboratory results: PMC4446618, “SAR of Sponge-Inspired Hemibastadin Congeners Inhibiting Blue Mussel PhenolOxidase” (Marine Drugs, 2015)
Read-outs that look alike come from different tables or passages of the source.

How the values were obtained:
[1] = tested on: blue mussel phenoloxidase (PO); assay: Blue mussel PO inhibition assay; type: biochemical, Mytilus edulis; conditions: for enzyme inhibitory activity towards blue mussel PO (in words): compared to DBHB (1); for IC50: purified enzyme, 25 °C, 10 mM L-DOPA, 50 mM phosphate buffer pH 6.8, 2 h incubation, triplicate
Protocol: PO activity was measured spectrophotometrically as described earlier. The purified enzyme was incubated at 25 °C with 10 mM L-DOPA in 50 mM phosphate buffer of pH 6.8. PO activity was determined by monitoring the increase of absorbance at 475 nm. One unit of enzyme activity was defined as the amount of enzyme that catalyzes the formation of 1 μmol dopachrome per minute under the described experimental conditions. Hemibastadin congeners were added to the assay at concentrations of up to 50 μg/mL. In addition, the biocide TBT (10 μg/mL) was used as a positive standard. Aliquots of pure enzyme were incubated for 2 h with hemibastadin analogues, then the enzyme activity was recorded with L-DOPA or catechol (10 mM) as substrates. All assays were run in triplicate. The results are presented as the concentration of compounds that reduces enzyme velocity by 50% (IC50 values). IC50 values were calculated using MINITAB (Version 14).

[2] = tested on: blue mussel phenoloxidase (PO); parameters: method as in PMID 21547349; conditions: cited from earlier work; for IC50: data derived from a previous investigation, read-out: IC50, inhibition of blue mussel phenoloxidase (PO)
barnacle larvae = tested on: barnacle larvae; parameters: method as in PMID 17713818; conditions: cited from earlier work

O=C(NCCc1ccccc1)/C(Cc1cc(Br)c(O)c(Br)c1)=N/O [Compound 10, N-2-phenylethyl-3-(3,5-dibromo-4-hydroxyphenyl)-2-(2-hydroxyimino)-propanamide]
enzyme inhibitory activity towards blue mussel PO (in words) [1]: strong reduction of inhibitory activity
IC50 [1]: 22.7 ± 0.88 µM

NC(Cc1ccc(O)cc1)C(=O)NCCc1ccc(O)cc1 (stereo not shown) [Compound 3, Tyrosinyltyramine]
inhibition of blue mussel PO (in words) [2]: completely inactive
IC50 [2]: > 100 µM

O=C(NCCc1cc(Br)c(O)c(Br)c1)/C(Cc1cc(Br)c(O)c(Br)c1)=N/O [Compound 1, 5,5′-dibromohemibastadin-1]
IC50 [1]: 0.81 µM
antifouling activity (in words) (barnacle larvae): strong antifouling activity

O=C(NC1CCCCC1)/C(Cc1cc(Br)c(O)c(Br)c1)=N/O [Compound 7, N-cyclohexyl-3-(3,5-dibromo-4-hydroxyphenyl)-2-(2-hydroxyimino)-propanamide]
IC50 [1]: 11.7 ± 0.49 µM

CC(=O)C(C)=NO [Compound 13, 2,3-butanedione monoxime, reference compound]
IC50 [2]: 8.7 µM

O=C(NCCc1c[nH]cn1)/C(Cc1cc(Br)c(O)c(Br)c1)=N/O [Compound 11, N-[2-(4-imidazolyl)-ethyl]-3-(3,5-dibromo-4-hydroxyphenyl)-2-(2-hydroxyimino)-propanamide]
IC50 [1]: 33.2 ± 1.72 µM
melting point: 130 °C

CO/N=C(\Cc1cc(Br)c(OC)c(Br)c1)C(=O)NCCc1cc(Br)c(OC)c(Br)c1 [Compound 6, Tri-O-methyl-5,5′-dibromohemibastadin-1]
IC50 [1]: 18.9 ± 0.77 µM
reduction of the enzyme inhibitory activity compared to the parent compound 1 ([1]; relative to DBHB (1)): more than twenty-fold

CC(C)CNC(=O)/C(Cc1cc(Br)c(O)c(Br)c1)=N/O [Compound 8, N-(2-methyl-propyl)-3-(3,5-dibromo-4-hydroxyphenyl)-2-(2-hydroxyimino)-propanamide]
IC50 [1]: 17.2 ± 0.76 µM

O=C(NCCc1c[nH]c2ccccc12)/C(Cc1cc(Br)c(O)c(Br)c1)=N/O [Compound 12, N-[2-(3-indolyl)-ethyl]-3-(3,5-dibromo-4-hydroxyphenyl)-2-(2-hydroxyimino)-propanamide]
enzyme inhibitory activity towards blue mussel PO (in words) [1]: complete loss of activity
IC50 [1]: > 100 µM

O=C(NCCc1cc(Cl)c(O)c(Cl)c1)/C(Cc1cc(Cl)c(O)c(Cl)c1)=N/O [Compound 5, Tetrachloro-norbromohemibastadin-1]
IC50 [1]: 1.19 µM

CCCCCCNC(=O)/C(Cc1cc(Br)c(O)c(Br)c1)=N/O [Compound 9, N-hexyl-3-(3,5-dibromo-4-hydroxyphenyl)-2-(2-hydroxyimino)-propanamide]
IC50 [1]: 16.3 ± 0.83 µM

O=C(NCCc1cc(I)c(O)c(I)c1)/C(Cc1cc(I)c(O)c(I)c1)=N/O [Compound 4, Tetraiodo-norbromohemibastadin-1]
IC50 [1]: 1.14 µM

O=C(NCCc1ccc(O)cc1)/C(Cc1ccc(O)cc1)=N/O [Compound 2, Norbromohemibastadin-1]
IC50 [2]: 2.41 µM
